Results: patent US12648924B2, “Prevention and treatment of effects of aging and age-associated disorders with ketone supplementation” (priority 2020, dated 2026)

Test: KDE in LPS-induced sepsis, inflammation-induced atrophy, ad libitum fed (Experiment 5b)
Type: in vivo, VM/Dk mice
Conditions: single 4 mL/kg KDE gavage after 10 mg/kg LPS
Description: VM-M3 Cell and Lipopolysaccharide Implantation: For VM-M3 implantation in the model characterization experiments (FIG. 1-5; FIG. 8-12), ˜1×10^6 VM-M3 cells (T. Seyfried, Boston College) in 300 μL sterile PBS (CA-M and CA-F) or 300 μL sterile PBS-only (SH-M and SH-F) were injected subcutaneously into the left abdominal flank resulting in primary tumor formation at the injection site, and subsequently systemically metastasizes to most major organs, namely the liver, kidneys, spleen, lungs, and brain. […] This method of implantation further minimized variability in markers of tumor progression, and therefore provides a useful optional method technique in the VM-M3 model for efficient analysis of potential therapeutic agents. To determine KDE-induced effects on CACS, 1×10^6 VM-M3 cells in 300 μL sterile PBS (KDE+VM-M3 and VM-M3) or 300 μL sterile PBS-only (Sham) were administered intraperitoneally (FIG. 6; FIG. 13). For LPS administration in the septic atrophy model, LPS (Escherichia coli 055:B5; L2880; Sigma-Aldrich, St. Louis, MO) was diluted in sterile PBS and administered intraperitoneally at 10 mg/kg as pilot work indicated a maximal, yet non-fatal, ˜15% bodyweight reduction at 10 mg/kg dose.
Body Composition: Bodyweight was assessed daily at the same time (7:00-9:00 AM). At EOL, bodyweight and weights of ascites fluid, primary tumor, calf (combined gastrocnemius & soleus), anterior thigh (quadriceps), intraperitoneal fat pads, liver and spleen tissue were measured (Table 1; Experiment 1a&b). A follow-up time course experiment was conducted at weeks 1, 2, and 3 to assess weekly changes in bodyweight and aforementioned tissues for both cancer and sham-matched control animals (Experiment 2). For follow up evaluation of KDE in CACS, bodyweight was tracked daily with tissue weight determined at 21-days, prior to EOL (Experiment 4c). All tissue weights were gathered at harvest and normalized to baseline bodyweight (not influenced by cachexia progression) to allow for appropriate comparison between animals. For evaluation of KDE in LPS, bodyweight was tracked daily for evaluation pre- and post-LPS administration (Experiment 5b&c).
Food Intake and Ketone Diester Administration: Standard diet dry food (2018 Teklad Global 18% Protein Rodent Diet, Harlan) was mixed with deionized water (1 g dry food/mL deionized water) into a consistent paste and placed on a 100×15 mm dish. Food intake was tracked daily at the same time (7:00-9:00) and replaced every other day to ensure fresh food. […] As pilot work indicated potential water evaporation in food paste in ventilated cages, dehydration standard curve was calculated across various volumes of plated food (5, 10, 25.0, 50.0, 100 g/food) with and without KDE over a two-day period. […]

Structure (SMILES): CC(=O)CC(=O)OCCC(C)OC(=O)CC(C)=O (stereo not shown) [KDE, R/S 1,3-butanediol acetoacetate diester]
- anorexic symptoms (percentage caloric restriction) (1 day post LPS): significantly reduced
- attenuation of bodyweight loss (first 24 hours, vs LPS with water): 47%
- chronic LPS-induced bodyweight loss (followed 13 days): significantly attenuated
- time to recovery (return to baseline bodyweight) (LPS alone did not recover within 13 days): ≤ 10 days
